Test results as given in ChEMBL document CHEMBL3638649, “Dihydroorotate dehydrogenase inhibitors” (2015).

Target: Dihydroorotate dehydrogenase (quinone), mitochondrial (Homo sapiens, UniProt Q02127)
Test: Enzyme Assay: The DHODH activity assay is a coupled enzyme assay in which oxidation of DHO and subsequent reduction of ubiquinone are stoichiometrically equivalent to the reduction of DCIP ([…]). The reduction of DCIP is accompanied by a loss of absorbance at 610 nm.Reagents Used:L-Dihydroorotic acid, Sigma, D7128, 2,6-Dichloroindophenol sodium salt hydrate, sigma, D1878 Dimethyl sulfoxide (DMSO), spectroscopic grade purchased from Spectrochem, cat no. 0704209, B. no.--3183650 Decylubiquinone, Sigma, D7911Preparation of Solutions/Reagents:Buffer Preparation: 50 mM tris HCl, 150 mM KCl, and pH 8.0, 0.8% triton.L-Dihydroorotic acid stock solution of 20 mM in buffer2,6-Dichloroindophenol Sodium salt hydrate stock solution of 20 mM in bufferDecylubiquinone stock solution of 20 mM in bufferDMSO used as vehicleProcedure:5 µL of Dimethyl sulfoxide or a compound of formula I in DMSO solution was added to the wells of a 96 well plate. Compounds of formula I were measured at 10 µM.

Chain of Dihydroorotate dehydrogenase (quinone), mitochondrial (Q02127 whole entry): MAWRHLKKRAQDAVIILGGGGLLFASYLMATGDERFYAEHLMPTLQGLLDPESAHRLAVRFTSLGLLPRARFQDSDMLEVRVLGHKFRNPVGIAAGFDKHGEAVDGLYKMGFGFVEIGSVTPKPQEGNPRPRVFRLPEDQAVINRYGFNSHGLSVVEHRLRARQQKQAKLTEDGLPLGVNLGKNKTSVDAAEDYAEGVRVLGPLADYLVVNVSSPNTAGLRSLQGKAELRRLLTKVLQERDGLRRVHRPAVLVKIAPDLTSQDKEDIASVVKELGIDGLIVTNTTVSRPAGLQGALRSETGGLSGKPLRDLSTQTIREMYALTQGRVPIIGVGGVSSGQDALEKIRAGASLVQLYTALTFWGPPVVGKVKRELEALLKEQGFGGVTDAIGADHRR

IC50: 11.4 µM
SMILES: Cc1cc(C(=O)O)c2nc(C#Cc3ccccc3)[nH]c2c1
